Measured values as given in ChEMBL document CHEMBL1201862, “PubChem BioAssay data set” (2004).
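Test compounds were applied to cells in 96-well plates for 48 hours at 5 doses. GI50 is the concentration that inhibits growth by half.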 Active and inactive are the calls of the source. No stated cut-off is given here; in the data, active = GI50 up to about 1.1 µM and inactive = higher.

Tests used:
Assay in all cases: DTP human tumour cell line panel, 48 h
[1] = system: 786-0
[2] = system: A498
[3] = system: A549
[4] = system: ACHN
[5] = system: BT-549
[6] = system: CAKI-1
[7] = system: CCRF-CEM
[8] = system: COLO 205
[9] = system: DU-145
[10] = system: EKVX
[11] = system: HCT-116
[12] = system: HCT-15
[13] = system: HL-60
[14] = system: HOP-62
[15] = system: HOP-92
[16] = system: HT-29
[17] = system: Hs-578T
[18] = system: IGROV-1
[19] = system: K562
[20] = system: KM12
[21] = system: LOX IMVI
[22] = system: M14
[23] = system: MDA-MB-231
[24] = system: MDA-MB-435
[25] = system: MDA-N
[26] = system: MOLT-4
[27] = system: Malme-3M
[28] = system: NCI-H226
[29] = system: NCI-H23
[30] = system: NCI-H460
[31] = system: NCI-H522
[32] = system: NCI/ADR-RES
[33] = system: OVCAR-3
[34] = system: OVCAR-4
[35] = system: OVCAR-5
[36] = system: OVCAR-8
[37] = system: PC-3
[38] = system: RPMI-8226
[39] = system: RXF 393
[40] = system: SF-268
[41] = system: SF-295
[42] = system: SF-539
[43] = system: SK-MEL-28
[44] = system: SK-MEL-2
[45] = system: SK-MEL-5
[46] = system: SK-OV-3
[47] = system: SN12C
[48] = system: SNB-19
[49] = system: SR
[50] = system: SW-620
[51] = system: T47D
[52] = system: TK-10
[53] = system: U-251
[54] = system: UACC-257
[55] = system: UACC-62
[56] = system: UO-31
[57] = system: HCC 2998
[58] = system: SNB-75
[59] = system: MCF7

`Cc1ccc2c(c1)NC(=O)CCSSCCC(=O)N2` was tested, and the GI50 [1] was > 100 µM (inactive), the GI50 [2] was > 100 µM (inactive) and the GI50 [3] was > 100 µM (inactive). For the same compound, the GI50 [4] was > 100 µM (inactive), the GI50 [5] was > 100 µM (inactive) and the GI50 [6] was > 100 µM (inactive). For the same compound, the GI50 [7] was > 100 µM (inactive), the GI50 [8] was > 100 µM (inactive) and the GI50 [9] was > 100 µM (inactive). The GI50 [10] was > 100 µM (inactive), the GI50 [11] was > 100 µM (inactive) and the GI50 [12] was over 100 µM. The GI50 [13] was > 100 µM (inactive), the GI50 [14] was > 100 µM (inactive) and the GI50 [15] was > 100 µM (inactive). For the same compound, the GI50 [16] was > 100 µM (inactive), the GI50 [17] was > 100 µM (inactive) and the GI50 [18] was > 100 µM (inactive). For the same compound, the GI50 [19] was > 100 µM (inactive), the GI50 [20] was > 100 µM (inactive) and the GI50 [21] was > 100 µM (inactive). The GI50 [22] was > 100 µM (inactive), the GI50 [23] was > 100 µM (inactive) and the GI50 [24] was > 100 µM (inactive). The GI50 [25] was > 100 µM (inactive), the GI50 [26] was > 100 µM (inactive) and the GI50 [27] was > 100 µM (inactive). For the same compound, the GI50 [28] was > 100 µM (inactive), the GI50 [29] was > 100 µM (inactive) and the GI50 [30] was > 100 µM (inactive). For the same compound, the GI50 [31] was > 100 µM (inactive), the GI50 [32] was > 100 µM (inactive) and the GI50 [33] was > 100 µM (inactive). The GI50 [34] was > 100 µM (inactive), the GI50 [35] was > 100 µM (inactive) and the GI50 [36] was > 100 µM (inactive). For the same compound, the GI50 [37] was > 100 µM (inactive), the GI50 [38] was > 100 µM (inactive) and the GI50 [39] was > 100 µM (inactive). For the same compound, the GI50 [40] was > 100 µM (inactive), the GI50 [41] was > 100 µM (inactive) and the GI50 [42] was > 100 µM (inactive). For the same compound, the GI50 [43] was > 100 µM (inactive), the GI50 [44] was > 100 µM (inactive) and the GI50 [45] was > 100 µM (inactive). For the same compound, the GI50 [46] was > 100 µM (inactive), the GI50 [47] was > 100 µM (inactive) and the GI50 [48] was > 100 µM (inactive). For the same compound, the GI50 [49] was > 100 µM (inactive), the GI50 [50] was > 100 µM (inactive) and the GI50 [51] was > 100 µM (inactive). The GI50 [52] was > 100 µM (inactive), the GI50 [53] was > 100 µM (inactive) and the GI50 [54] was > 100 µM (inactive). For the same compound, the GI50 [55] was > 100 µM (inactive) and the GI50 [56] was > 100 µM (inactive).
In the case of `Cc1cc2nc(-c3cc(C(C)(C)C)c(O)c(C(C)(C)C)c3)[nH]c2cc1C`, the GI50 [1] is reported as 0.867 µM (active), the GI50 [2] is reported as > 100 µM (inactive) and the GI50 [3] is reported as 2.44 µM (inactive). For the same compound, the GI50 [5] was > 100 µM (inactive), the GI50 [7] was 1.39 µM (inactive) and the GI50 [8] was 2.9 µM (inactive). The GI50 [9] was > 100 µM (inactive), the GI50 [10] was > 39.1 µM (inactive) and the GI50 [57] was 5.81 µM (inactive). The GI50 [11] was 1.79 µM (inactive), the GI50 [12] was 6.55 µM and the GI50 [13] was 13.8 µM (inactive). The GI50 [14] was > 100 µM (inactive), the GI50 [15] was > 100 µM (inactive) and the GI50 [17] was 17.2 µM (inactive). For the same compound, the GI50 [18] was 5.08 µM (inactive), the GI50 [19] was 3.18 µM (inactive) and the GI50 [20] was 3.39 µM (inactive). For the same compound, the GI50 [21] was 4.16 µM (inactive), the GI50 [22] was 4.67 µM (inactive) and the GI50 [24] was > 23.3 µM (inactive). The GI50 [25] was 3.49 µM (inactive), the GI50 [26] was 1.82 µM (inactive) and the GI50 [27] was > 100 µM (inactive). The GI50 [28] was > 100 µM (inactive), the GI50 [29] was > 34 µM (inactive) and the GI50 [30] was 4.47 µM (inactive). For the same compound, the GI50 [31] was > 100 µM (inactive), the GI50 [32] was > 68.7 µM (inactive) and the GI50 [33] was 11.6 µM (inactive). The GI50 [34] was 1.54 µM (inactive), the GI50 [35] was > 100 µM (inactive) and the GI50 [36] was 12.7 µM (inactive). For the same compound, the GI50 [37] was 7.19 µM (inactive), the GI50 [38] was 12.8 µM (inactive) and the GI50 [39] was > 100 µM (inactive). The GI50 [40] was 9.62 µM (inactive), the GI50 [41] was > 100 µM (inactive) and the GI50 [42] was 28.1 µM (inactive). For the same compound, the GI50 [43] was > 100 µM (inactive), the GI50 [44] was > 100 µM (inactive) and the GI50 [45] was > 71 µM (inactive). The GI50 [46] was > 100 µM (inactive), the GI50 [47] was 9.62 µM (inactive) and the GI50 [48] was 11.6 µM (inactive). For the same compound, the GI50 [58] was > 100 µM (inactive), the GI50 [49] was 1.06 µM (active) and the GI50 [50] was 1.65 µM (inactive). For the same compound, the GI50 [51] was > 100 µM (inactive), the GI50 [52] was > 22.3 µM (inactive) and the GI50 [53] was 2.64 µM (inactive). For the same compound, the GI50 [54] was > 52.2 µM (inactive), the GI50 [55] was 0.979 µM (active) and the GI50 [56] was 6.17 µM (inactive).
With `CCOC(=S)SCC(=O)O` the GI50 [1] was > 100 µM (inactive), the GI50 [2] was > 100 µM (inactive) and the GI50 [3] was > 100 µM (inactive). For the same compound, the GI50 [4] was > 100 µM (inactive), the GI50 [5] was > 100 µM (inactive) and the GI50 [6] was > 100 µM (inactive). The GI50 [7] was 1 µM (active), the GI50 [8] was > 100 µM (inactive) and the GI50 [10] was > 100 µM (inactive). The GI50 [11] was > 100 µM (inactive), the GI50 [12] was over 100 µM and the GI50 [13] was 2.01 µM (inactive). For the same compound, the GI50 [14] was > 100 µM (inactive), the GI50 [15] was > 100 µM (inactive) and the GI50 [16] was > 100 µM (inactive). For the same compound, the GI50 [17] was > 100 µM (inactive), the GI50 [18] was > 100 µM (inactive) and the GI50 [19] was > 100 µM (inactive). The GI50 [20] was > 100 µM (inactive), the GI50 [21] was > 100 µM (inactive) and the GI50 [22] was > 100 µM (inactive). For the same compound, the GI50 [59] was > 100 µM (inactive), the GI50 [23] was > 100 µM (inactive) and the GI50 [24] was > 100 µM (inactive). For the same compound, the GI50 [25] was > 100 µM (inactive), the GI50 [26] was > 100 µM (inactive) and the GI50 [27] was > 100 µM (inactive). For the same compound, the GI50 [28] was > 100 µM (inactive), the GI50 [29] was > 100 µM (inactive) and the GI50 [30] was > 100 µM (inactive). The GI50 [31] was > 100 µM (inactive), the GI50 [32] was > 100 µM (inactive) and the GI50 [33] was > 100 µM (inactive). For the same compound, the GI50 [34] was > 100 µM (inactive), the GI50 [35] was > 100 µM (inactive) and the GI50 [36] was > 100 µM (inactive). For the same compound, the GI50 [37] was > 100 µM (inactive), the GI50 [38] was > 100 µM (inactive) and the GI50 [39] was > 100 µM (inactive). The GI50 [40] was > 100 µM (inactive), the GI50 [41] was > 100 µM (inactive) and the GI50 [42] was > 100 µM (inactive). The GI50 [43] was > 100 µM (inactive), the GI50 [44] was > 100 µM (inactive) and the GI50 [45] was > 100 µM (inactive). The GI50 [46] was > 100 µM (inactive), the GI50 [47] was > 100 µM (inactive) and the GI50 [48] was > 100 µM (inactive). The GI50 [58] was > 100 µM (inactive), the GI50 [49] was > 100 µM (inactive) and the GI50 [50] was > 100 µM (inactive). The GI50 [51] was > 100 µM (inactive), the GI50 [52] was > 100 µM (inactive) and the GI50 [53] was > 100 µM (inactive). For the same compound, the GI50 [54] was > 100 µM (inactive), the GI50 [55] was > 100 µM (inactive) and the GI50 [56] was > 100 µM (inactive).
